From patent publication US20230381129A1, “PERMETRIN FOR USE IN THE TREATMENT OF DEMODEX SPP INFESTATION” (priority 2020, published 2023) come the findings set out here.

Where a name gives a salt, the structure may show the parent alone.

For experiment [1], the system named is Demodex mites. Kind of experiment: In vitro survival study of Demodex mites on a glass slide without a coverslip. Also noted: species or system Demodex spp. As to the method: At least ten eyelashes from the upper and lower eyelids of both eyes were randomly collected from all subjects from the subsequent groups. The collected material was assessed in a UB-203i light microscope with a five-point revolver bowl and a vision track with a magnification of 4×, 10×, 20×, 40× and 100×, archiving the results with a digital camera type Toupcam TP 601300A from Touptek Photonics installed in the device.
In the case of the presence of Demodex mites, several dozen different chemical compounds in various concentrations with a potential demodicidal effect were used on the glass slide without the use of a coverslip. […] The in vitro test results for permethrin and fluralaner were archived using a Toupcam TP 601300A digital camera from Touptek Photonics mounted on the device.

For experiment [2], the system named is Demodex spp. infestation. Kind of experiment: Topical use of shampoo or shower gel in a person with inflammation and redness. Format: in vivo, humans. The conditions noted are these: shampoo or shower gel containing 0.75% active, 3 times a week for 2 months, human. The text has this: A shampoo or shower gel containing 0.75% permethrin is used 3 times a week for a period of 2 months.
Shampoo or shower gel containing 0.75% fluralaner is used 3 times a week for a period of 2 months.
A shampoo or shower gel containing 0.5% fluralaner and 0.5% permethrin is used 3 times a week for a period of 2 months.

`NCC[C@H](O)C(=O)N[C@@H]1C[C@H](N)[C@@H](O[C@H]2O[C@H](CN)[C@@H](O)[C@H](O)[C@H]2O)[C@H](O)[C@H]1O[C@H]1O[C@H](CO)[C@@H](O)[C@H](N)[C@H]1O` [Amikacin]: in experiment [1] (concentration 0.30%), the “Time of Survival of Demodex mites” value is given as “more than 15 minutes”. For the compound `CN1[C@@H]2CC[C@H]1CC(OC(=O)C(CO)c1ccccc1)C2.CN1[C@@H]2CC[C@H]1CC(OC(=O)C(CO)c1ccccc1)C2.O=S(=O)(O)O` (stereo partly drawn) [Atropinum sulfuricum], the “Time of Survival of Demodex mites” value in experiment [1] (concentration 1%) is given as “more than 15 minutes”.

As for `O=C(O)c1cn(C2CC2)c2cc(N3CCNCC3)c(F)cc2c1=O` [Ciprofloxacin], the “Time of Survival of Demodex mites” value in experiment [1] (concentration 0.30%) is “more than 15 minutes”. On to `CC=CC(=O)N(CC)c1ccccc1C` [Crotamiton], for which, in experiment [1] (concentration 10%), the “Time of Survival of Demodex mites” value is reported as “more than 15 minutes”. In the case of `CN(C)CCOC(=O)C(c1ccccc1)C1(O)CCCC1` (stereo not drawn) [Cyclopentolat], the “Time of Survival of Demodex mites” value in experiment [1] (concentration 1%) is “more than 15 minutes”. Regarding `CCO` [Ethanol], the “Time of Survival of Demodex mites” value in experiment [1] (concentration 98%) is given as “more than 15 minutes”.

On to `Cc1cc(C2=NOC(c3cc(Cl)cc(Cl)c3)(C(F)(F)F)C2)ccc1C(=O)NCC(=O)NCC(F)(F)F` (stereo not drawn) [Fluralaner, 4-[(5R5)-5-(3,5-dichlorophenyl)-4,5-dihydro-5-(trifluoromethyl)-1,2-oxazol-3-yl]-N-[2-oxo-2-(2,2,2-trifluoroethylamino)ethyl]-o-toluamide], for which, in experiment [1] (concentration 10%), the “Time of Survival of Demodex mites” value is 6 min. In experiment [2], the “Eyelid margin inflammation and eye symptoms (burning, itching, dry eyes, scales and deposits) after treatment” value is “reduction in inflammation of the eyelid margins”; the “Skin inflammation symptoms and redness after treatment” value is “visible improvement”. Take `OO` [Hydrogen peroxide (hydrogen peroxide), Hydrogen peroxide]: the “Time of Survival of Demodex mites” value in experiment [1] (concentration 3%) is reported as “more than 15 minutes”. Turning to `C[C@H]1COc2c(N3CCN(C)CC3)c(F)cc3c(=O)c(C(=O)O)cn1c23` [Levofloxacin], the “Time of Survival of Demodex mites” value in experiment [1] (concentration 0.50%) is “more than 15 minutes”. `N=C(NCCCCCCNC(=N)NC(=N)Nc1ccc(Cl)cc1)NC(=N)Nc1ccc(Cl)cc1.O=C(O)[C@H](O)[C@@H](O)[C@H](O)[C@H](O)CO.O=C(O)[C@H](O)[C@@H](O)[C@H](O)[C@H](O)CO` [Manusan (chlorhexidine digluconate), chlorhexidine digluconate]: the “Time of Survival of Demodex mites” value in experiment [1] (concentration 4%) was “more than 15 minutes”. As to `O=C(OCc1ccccc1)c1ccccc1` [Novosscabin (benzyl benzoate), benzyl benzoate], the “Time of Survival of Demodex mites” value in experiment [1] (concentration 30%) is “more than 15 minutes”. `CC1COc2c(N3CCN(C)CC3)c(F)cc3c(=O)c(C(=O)O)cn1c23` (stereo not drawn) [Ofloxacin]: in experiment [1] (concentration 0.30%), the “Time of Survival of Demodex mites” value was “more than 15 minutes”. `CC1(C)C(C=C(Cl)Cl)C1C(=O)OCc1cccc(Oc2ccccc2)c1` (stereo not drawn) [Permethrin]: in experiment [1] (concentration 10%), the “Time of Survival of Demodex mites” value was 5 min. For the same compound, in experiment [2], the “Eyelid margin inflammation and eye symptoms (burning, itching, dry eyes, scales and deposits) after treatment” value was “reduction in inflammation of the eyelid margins”; the “Skin inflammation symptoms and redness after treatment” value is recorded as “visible improvement”. As to `CNC[C@H](O)c1cccc(O)c1.Cl` [Phenylephrini hydrochloridum], the “Time of Survival of Demodex mites” value in experiment [1] (concentration 10%) is on record as “more than 15 minutes”. Consider `CC[C@@H]1C(=O)OC[C@@H]1Cc1cncn1C.Cl` [Pilocarpinum hydrochloridum], for which the “Time of Survival of Demodex mites” value in experiment [1] (concentration 2%) is recorded as “more than 15 minutes”. As to `CN(C)C(=O)Oc1cccc([N+](C)(C)C)c1` [Polstigmine (neostigmine methyl sulfate), neostigmine methyl sulfate], the “Time of Survival of Demodex mites” value in experiment [1] (concentration 0.05%) is reported as “more than 15 minutes”.

On to `NC[C@H]1O[C@H](O[C@H]2[C@H](O)[C@@H](O[C@H]3O[C@H](CO)[C@@H](O)[C@H](N)[C@H]3O)[C@H](N)C[C@@H]2N)[C@H](N)C[C@@H]1O` [Tobramycin], for which the “Time of Survival of Demodex mites” value in experiment [1] (concentration 0.30%) is listed as “more than 15 minutes”.

Regarding `NC(N)=O` [Urea], the “Time of Survival of Demodex mites” value in experiment [1] (concentration 20%) is given as “more than 15 minutes”. As to Gentamicin, the “Time of Survival of Demodex mites” value in experiment [1] (concentration 0.30%) is listed as “more than 15 minutes”. With Ivermectin, in experiment [1] (concentration 1%), the “Time of Survival of Demodex mites” value is listed as “more than 15 minutes”.
